Data on one molecule can be found in article PMC8449129, “Single tracer-based protocol for broad-spectrum kinase profiling in live cells with NanoBRET” (STAR Protocols, 2021).

Common to all, as to test: cell-based
Holding throughout (set-up): NanoBRET live-cell target engagement; % occupancy from displacement of tracer K10 on NanoLuc-kinase fusions, mean n=3
What all share (conditions): HEK293, read-out: % inhibition
On the technique in general: Bioluminescence resonance energy transfer reports proximity on the nanometre scale.

The target of one experiment is ABL2 (Homo sapiens, UniProt P42684). The method, boiled down:
(§1)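 Live-cell NanoBRET target engagement: cells expressing kinase–NanoLuc fusion with tracer treated with compound 2 h at 37 °C, 5% CO2. BRET read from donor (450 nm) and acceptor (610/630 nm) emission with 20 μM extracellular NanoLuc inhibitor; % occupancy calculated relative to tracer+DMSO and zero-BRET controls.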

The target in another experiment is BRSK1 (Homo sapiens, UniProt Q8TDC3). The essentials: as §1
Another experiment concerns the target CDK10 (Homo sapiens, UniProt Q15131). The method, boiled down:
as §1

A further experiment has as its target SIK1 (Homo sapiens, UniProt P57059). The method, boiled down: as §1
The target of another experiment is MAPK6 (Homo sapiens, UniProt Q16659). The method, boiled down: as §1
The target in a further experiment is NIM1K (Homo sapiens, UniProt Q8IY84). The essentials:
as §1

The target in another experiment is CAMK2D (Homo sapiens, UniProt Q13557). The method, boiled down:
as §1

The target of the next experiment is MARK4 (Homo sapiens, UniProt Q96L34). The method, boiled down: as §1
Another experiment deals with CSNK1D (Homo sapiens, UniProt P48730). The method, boiled down: as §1
In another experiment the target is MAP3K19 (Homo sapiens, UniProt Q56UN5). The essentials: as §1
The next experiment has as its target PAK6 (Homo sapiens, UniProt Q9NQU5). The essentials: as §1
A further experiment has as its target MAP3K4 (Homo sapiens, UniProt Q9Y6R4). The essentials:
as §1

The target in a further experiment is STK10 (Homo sapiens, UniProt O94804). The method, boiled down:
as §1

The target of a further experiment is T1, ICK (Homo sapiens, UniProt Q9UPZ9).
T1 construct: gene CILK1
The method, boiled down:
as §1

The next experiment has as its target MAP3K21 (Homo sapiens, UniProt Q5TCX8). The essentials: as §1
For a further experiment, the target named is CDK4 (Homo sapiens, UniProt P11802). The essentials: as §1
The target in the next experiment is CDK16 (Homo sapiens, UniProt Q00536). The essentials: as §1
The next experiment concerns the target CDKL2 (Homo sapiens, UniProt Q92772). The essentials: as §1

Sequence of PAK6 (Q9NQU5 whole entry): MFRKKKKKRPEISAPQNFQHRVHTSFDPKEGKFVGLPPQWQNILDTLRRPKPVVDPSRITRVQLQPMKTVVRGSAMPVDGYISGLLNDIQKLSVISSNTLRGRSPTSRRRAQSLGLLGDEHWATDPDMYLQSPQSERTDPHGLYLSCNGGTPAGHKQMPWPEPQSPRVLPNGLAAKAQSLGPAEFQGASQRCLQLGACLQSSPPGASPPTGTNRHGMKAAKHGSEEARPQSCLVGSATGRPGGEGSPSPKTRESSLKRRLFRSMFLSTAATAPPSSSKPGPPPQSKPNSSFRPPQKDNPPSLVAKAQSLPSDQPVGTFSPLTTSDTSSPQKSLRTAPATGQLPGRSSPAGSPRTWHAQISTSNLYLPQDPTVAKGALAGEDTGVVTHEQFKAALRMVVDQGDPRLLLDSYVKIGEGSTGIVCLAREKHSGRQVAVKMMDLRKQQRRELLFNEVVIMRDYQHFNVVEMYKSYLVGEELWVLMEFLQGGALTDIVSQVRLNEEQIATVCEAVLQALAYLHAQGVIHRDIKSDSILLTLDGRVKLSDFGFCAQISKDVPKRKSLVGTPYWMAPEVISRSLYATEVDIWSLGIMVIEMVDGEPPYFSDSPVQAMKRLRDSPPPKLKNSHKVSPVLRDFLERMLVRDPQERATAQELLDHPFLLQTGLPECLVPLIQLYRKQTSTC
Sequence of NIM1K (Q8IY84 whole entry): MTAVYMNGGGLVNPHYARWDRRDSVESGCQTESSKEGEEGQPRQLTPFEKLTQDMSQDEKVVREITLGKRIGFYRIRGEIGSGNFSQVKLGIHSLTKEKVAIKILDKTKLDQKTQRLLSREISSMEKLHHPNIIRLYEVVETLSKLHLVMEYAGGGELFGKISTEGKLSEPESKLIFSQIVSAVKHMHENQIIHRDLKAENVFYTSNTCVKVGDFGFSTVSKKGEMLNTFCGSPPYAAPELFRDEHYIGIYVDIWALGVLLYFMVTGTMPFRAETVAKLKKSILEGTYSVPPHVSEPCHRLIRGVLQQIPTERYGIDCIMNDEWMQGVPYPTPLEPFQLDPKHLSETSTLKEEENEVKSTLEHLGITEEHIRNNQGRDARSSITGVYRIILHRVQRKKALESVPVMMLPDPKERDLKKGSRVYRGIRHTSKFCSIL
Sequence of MAP3K21 (Q5TCX8 whole entry): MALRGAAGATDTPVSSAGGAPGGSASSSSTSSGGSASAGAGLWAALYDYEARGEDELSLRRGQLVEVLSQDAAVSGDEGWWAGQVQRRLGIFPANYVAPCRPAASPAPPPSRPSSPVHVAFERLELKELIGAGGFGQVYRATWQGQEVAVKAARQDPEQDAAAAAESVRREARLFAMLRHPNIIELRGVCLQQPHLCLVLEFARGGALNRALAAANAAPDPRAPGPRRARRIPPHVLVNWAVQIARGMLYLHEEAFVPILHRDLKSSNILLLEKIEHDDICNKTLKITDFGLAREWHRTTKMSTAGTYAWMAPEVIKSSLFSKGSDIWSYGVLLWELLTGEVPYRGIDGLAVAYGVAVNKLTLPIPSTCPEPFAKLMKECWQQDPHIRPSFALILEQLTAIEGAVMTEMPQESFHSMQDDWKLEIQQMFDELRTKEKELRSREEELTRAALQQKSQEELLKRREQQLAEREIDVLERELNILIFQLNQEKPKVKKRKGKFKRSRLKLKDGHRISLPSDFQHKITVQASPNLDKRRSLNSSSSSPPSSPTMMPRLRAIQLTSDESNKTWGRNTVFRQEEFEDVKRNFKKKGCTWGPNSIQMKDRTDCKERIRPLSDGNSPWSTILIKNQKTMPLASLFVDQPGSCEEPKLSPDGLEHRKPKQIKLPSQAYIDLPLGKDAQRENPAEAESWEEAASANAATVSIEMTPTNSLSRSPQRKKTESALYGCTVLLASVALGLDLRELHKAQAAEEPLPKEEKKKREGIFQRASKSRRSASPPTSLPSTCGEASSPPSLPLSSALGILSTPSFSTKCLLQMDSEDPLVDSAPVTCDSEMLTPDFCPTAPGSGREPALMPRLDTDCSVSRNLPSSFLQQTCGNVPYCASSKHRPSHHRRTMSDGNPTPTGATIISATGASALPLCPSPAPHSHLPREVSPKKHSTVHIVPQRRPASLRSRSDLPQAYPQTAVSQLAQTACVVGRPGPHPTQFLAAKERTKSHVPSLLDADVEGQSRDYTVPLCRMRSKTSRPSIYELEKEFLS
Sequence of STK10 (O94804 whole entry): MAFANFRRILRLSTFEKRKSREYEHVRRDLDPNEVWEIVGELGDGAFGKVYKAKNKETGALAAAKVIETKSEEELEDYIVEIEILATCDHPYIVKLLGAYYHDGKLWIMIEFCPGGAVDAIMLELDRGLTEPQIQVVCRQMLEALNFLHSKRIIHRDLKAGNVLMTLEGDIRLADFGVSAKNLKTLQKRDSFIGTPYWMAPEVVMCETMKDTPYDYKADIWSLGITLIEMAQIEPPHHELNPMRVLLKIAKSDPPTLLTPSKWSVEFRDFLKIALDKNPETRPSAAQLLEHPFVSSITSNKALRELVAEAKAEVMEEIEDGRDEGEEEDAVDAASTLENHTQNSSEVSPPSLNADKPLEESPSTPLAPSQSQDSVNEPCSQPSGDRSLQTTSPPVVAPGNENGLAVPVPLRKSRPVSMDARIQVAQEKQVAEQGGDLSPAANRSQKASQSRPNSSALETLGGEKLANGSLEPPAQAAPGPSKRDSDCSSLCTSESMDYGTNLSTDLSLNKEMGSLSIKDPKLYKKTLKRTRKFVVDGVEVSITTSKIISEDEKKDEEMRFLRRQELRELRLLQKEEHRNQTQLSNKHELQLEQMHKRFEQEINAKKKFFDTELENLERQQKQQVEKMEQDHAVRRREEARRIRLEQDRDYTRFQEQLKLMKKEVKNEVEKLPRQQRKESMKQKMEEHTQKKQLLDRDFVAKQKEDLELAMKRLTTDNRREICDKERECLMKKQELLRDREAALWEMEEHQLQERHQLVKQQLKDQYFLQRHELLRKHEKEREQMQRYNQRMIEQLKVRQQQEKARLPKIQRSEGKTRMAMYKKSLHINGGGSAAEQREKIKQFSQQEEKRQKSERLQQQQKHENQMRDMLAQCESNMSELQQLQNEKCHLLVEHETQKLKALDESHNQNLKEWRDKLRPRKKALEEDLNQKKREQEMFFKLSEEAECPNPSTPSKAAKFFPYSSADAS
T1 sequence (Q9UPZ9 whole entry): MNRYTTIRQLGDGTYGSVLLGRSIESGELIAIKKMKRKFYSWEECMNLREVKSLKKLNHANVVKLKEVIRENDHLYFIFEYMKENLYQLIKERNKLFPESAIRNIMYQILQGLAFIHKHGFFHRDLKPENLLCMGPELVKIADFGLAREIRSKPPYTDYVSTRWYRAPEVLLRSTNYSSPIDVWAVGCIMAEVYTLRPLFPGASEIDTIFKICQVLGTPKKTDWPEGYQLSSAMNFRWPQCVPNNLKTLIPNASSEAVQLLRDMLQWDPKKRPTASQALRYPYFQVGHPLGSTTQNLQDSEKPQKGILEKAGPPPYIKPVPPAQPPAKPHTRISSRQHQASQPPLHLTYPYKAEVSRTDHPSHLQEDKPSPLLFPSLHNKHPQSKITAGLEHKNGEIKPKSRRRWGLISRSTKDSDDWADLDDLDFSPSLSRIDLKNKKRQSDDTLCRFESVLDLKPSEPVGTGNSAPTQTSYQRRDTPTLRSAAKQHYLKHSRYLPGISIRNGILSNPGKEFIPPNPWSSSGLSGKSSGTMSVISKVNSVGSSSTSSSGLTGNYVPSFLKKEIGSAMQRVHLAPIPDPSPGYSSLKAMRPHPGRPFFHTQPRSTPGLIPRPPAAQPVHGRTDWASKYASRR
Sequence of BRSK1 (Q8TDC3 whole entry): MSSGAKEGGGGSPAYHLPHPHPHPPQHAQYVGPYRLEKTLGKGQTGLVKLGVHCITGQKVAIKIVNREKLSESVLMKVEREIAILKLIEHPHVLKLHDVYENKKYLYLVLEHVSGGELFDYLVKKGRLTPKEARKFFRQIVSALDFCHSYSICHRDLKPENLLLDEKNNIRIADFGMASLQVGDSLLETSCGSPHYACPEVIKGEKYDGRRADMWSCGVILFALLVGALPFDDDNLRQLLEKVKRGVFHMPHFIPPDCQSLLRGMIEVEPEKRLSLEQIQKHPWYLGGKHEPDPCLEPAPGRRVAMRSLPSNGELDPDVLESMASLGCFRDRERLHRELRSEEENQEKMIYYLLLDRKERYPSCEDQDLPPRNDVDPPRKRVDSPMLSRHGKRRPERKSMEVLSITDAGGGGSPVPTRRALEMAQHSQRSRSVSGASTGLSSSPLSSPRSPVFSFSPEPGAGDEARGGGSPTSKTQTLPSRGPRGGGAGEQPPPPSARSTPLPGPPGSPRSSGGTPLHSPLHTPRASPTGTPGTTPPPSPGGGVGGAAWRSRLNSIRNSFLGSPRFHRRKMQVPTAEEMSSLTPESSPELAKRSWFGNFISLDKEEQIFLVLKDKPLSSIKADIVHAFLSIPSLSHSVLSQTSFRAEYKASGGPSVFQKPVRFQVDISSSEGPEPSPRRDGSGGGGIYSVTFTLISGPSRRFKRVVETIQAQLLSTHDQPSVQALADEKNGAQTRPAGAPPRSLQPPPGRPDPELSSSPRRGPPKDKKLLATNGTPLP
Sequence of CDKL2 (Q92772 whole entry): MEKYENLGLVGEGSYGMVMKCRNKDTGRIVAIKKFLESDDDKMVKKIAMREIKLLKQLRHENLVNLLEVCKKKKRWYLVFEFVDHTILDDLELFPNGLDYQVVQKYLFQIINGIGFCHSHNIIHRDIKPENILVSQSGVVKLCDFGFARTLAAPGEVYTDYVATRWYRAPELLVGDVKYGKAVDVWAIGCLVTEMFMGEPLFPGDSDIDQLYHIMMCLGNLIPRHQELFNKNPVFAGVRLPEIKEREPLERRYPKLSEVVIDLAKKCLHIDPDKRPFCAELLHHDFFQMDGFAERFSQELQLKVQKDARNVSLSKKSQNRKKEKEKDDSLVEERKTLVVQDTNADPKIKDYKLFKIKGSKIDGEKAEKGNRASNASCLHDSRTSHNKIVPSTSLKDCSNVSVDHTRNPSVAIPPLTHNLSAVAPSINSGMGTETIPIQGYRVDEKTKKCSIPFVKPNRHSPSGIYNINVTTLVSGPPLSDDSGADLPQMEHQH

Usually inhibition stands for the change of the read-out against control, counted positive when it falls. Take `C[C@@H](Oc1cc(-c2cnn(C3CCNCC3)c2)cnc1N)c1c(Cl)ccc(F)c1Cl` [crizotinib]: the inhibition at 1 µM is 43% on ABL2; -1% at BRSK1; 8% at CDK10; -4% at SIK1; 2% at MAPK6; -3% on NIM1K. The inhibition at 1 µM on CAMK2D was 3%; at MARK4, -15%; at CSNK1D, -4%; on MAP3K19, 6%; on PAK6, -7%; at MAP3K4, -1%. Also, the inhibition at 1 µM is 35% on STK10; 3% on ICK; 3% at MAP3K21; 4% on CDK4; 2% at CDK16; 21% on CDKL2.
